Results reported in US10073082B2, “Proteasome inhibition assay and methods of use” (UNIVERSITY HEALTH NETWORK, priority 2013, dated 2018).

B1: CD40L: IκB degradation agonist (protein, UniProt P29965 113-261, looked up)
CD40 ligand, soluble form: MQKGDQNPQIAAHVISEASSKTTSVLQWAEKGYYTMSNNLVTLENGKQLTVKRQGLYYIYAQVTFCSNREASSQAPFIASLCLKSPGRFERILLRAANTHSSAKPCGQQSIHLGGVFELQPGASVFVNVTDPSQVSHGTGFTSFGLLKL

Tests used:
Format in all cases: cell-based, human
[1] = test system: P-ERK (P-Thr202/P-Tyr204) in peripheral blood monocytes; assay: ERK phosphorylation in LPS activated monocytes from pretreated whole blood; conditions: LPS stimulated monocytes, single late ERK peak 8-10 minutes, FIG. 19
Method: (§1) Whole blood samples from normal human donors were collected. 100 μL aliquots of the whole blood were inserted into the bottom of 12×75 mm tubes. In order to reduce the potential for contamination of the sample with unfixed cells, blood was removed from the side of the tubes with a cotton swab. 1-2 μL of a proteasome effector was added to a first portion of the tubes and these tubes were incubated for 2 hours at 37° C. in a water bath. In this example, the proteasome effector was Bortezomib or MG-132, both proteasome inhibitors. Following pretreatment with the proteasome effector, 2 μL of […] stock solution (100 ng) of an IκB degradation agonist was added to the tubes and the tubes were incubated from 1 minute to 60 minutes at 37° C. in a water bath. In this example, the agonist was lipopolysaccharide (LPS). A second portion of the tubes were treated with the IκB degradation agonist and no proteasome effector. 2 μL of an IκB degradation agonist was added to these tubes and the tubes were incubated from 1 minute to 60 minutes as described above. For control tubes, 2 μL of phosphate buffered saline (PBS) was added to the tubes and the tubes were incubated as described above.
(§2) Following incubation, the cells were fixed and permeabilized with a PerFix-P® kit (Beckman Coulter, Inc., Brea. Calif.) according to the manufacturer's instructions. The fixed and permeabilized cells were then washed with 2 mL of Wash Buffer (PBS (w/o Ca++/Mg++) with 2% fetal bovine serum (FBS), sterile filtered (0.22 μm filter)) in the tubes and centrifuged at 500×g for 4 minutes. The cell pellet was resuspended in 2 mL of cold (4° C.) Wash Buffer, centrifuged at 500×g for 4 minutes, and the supernatant was aspirated.
Following the above wash steps, the fixed and permeabilized cells were resuspended in 100 μL of cold Wash Buffer comprising antibodies to specific intracellular antigens (e.g., signaling targets including P-ERK, P-Akt, P-p38, P-SAPK, P-S6, and antibodies to IκB). The antibodies were labeled with different fluorochromes (e.g. fluorophores) to facilitate their-individual measurement of the intracellular antigens. […] For example, anti-CD14 antibodies were included to specifically label monocytes, anti-CD3 antibodies or anti-CD19 antibodies were included to specifically label T or B-cells respectively, and/or anti-CD38/CD138 antibodies were included to specifically label plasma cells. The cells were incubated with the antibodies for 30 minutes at room temperature and then the cells were washed in 2 mL of cold Wash Buffer and centrifuged as described above. The supernatant was aspirated and the cell pellet was resuspended in 350 μL of Resuspension Buffer (PerFix-P® kit) and analyzed on a flow cytometer (GALLIOS™) using a protocol with defined population gates and series of dual parameter histograms. A CD45-KO vs. SS dual parameter histogram was collected and a gate around the leukocyte population based on the CD45+ fluorescence and SS characteristics was drawn to exclude debris (CD45 negative events). A minimum of 2,500 CD14+ events were collected. […] The collected flow cytometric data was analyzed using KALUZA™ software.
Phosphorylation of signaling pathways activated by LPS, including ERK, Akt (activated by PI3 Kinase), and the ribosomal S6 protein (a marker of protein synthesis) were also monitored together with the degradation of IκB. […] The degradation of IκB in cells pretreated with MG-132 or GDC-0941 was monitored by flow cytometry as described in Example 1. […]

granulocytes = assay: IκB degradation agonists in whole blood: IκB degradation and signaling pathway activation in granulocytes; conditions: Target Cell Population: Granulocytes
Method: as §1, §2
Following the above wash steps, the fixed and permeabilized cells were resuspended in 100 μL of cold Wash Buffer comprising antibodies to specific intracellular antigens (e.g., signaling targets including P-ERK, P-Akt, P-p38, P-SAPK, P-S6, and antibodies to IκB). The antibodies were labeled with different fluorochromes (e.g. fluorophores) to facilitate their-individual measurement of the intracellular antigens. […] The supernatant was aspirated and the cell pellet was resuspended in 350 μL of Resuspension Buffer (PerFix-P® kit) and analyzed on a flow cytometer (GALLIOS™) using a protocol with defined population gates and series of dual parameter histograms. A CD45-KO vs. SS dual parameter histogram was collected and a gate around the leukocyte population based on the CD45+ fluorescence and SS characteristics was drawn to exclude debris (CD45 negative events). […] The collected flow cytometric data was analyzed using KALUZA™ software.

[2] = test system: peripheral blood lymphocytes; assay: IκB degradation agonists in whole blood: IκB degradation and signaling pathway activation in lymphocytes; conditions: for Pathways Activated: Target Cell Population: Lymphocytes (subpopulation); for Akt activation in lymphocytes / ERK activation in lymphocytes / degradation of IκB in lymphocytes / S6 activation in lymphocytes: agonist alone
Method: as §1, §2
(§3) Following the above wash steps, the fixed and permeabilized cells were resuspended in 100 μL of cold Wash Buffer comprising antibodies to specific intracellular antigens (e.g., signaling targets including P-ERK, P-Akt, P-p38, P-SAPK, P-S6, and antibodies to IκB). The antibodies were labeled with different fluorochromes (e.g. fluorophores) to facilitate their-individual measurement of the intracellular antigens. In order to target specific cell populations in the assay, antibodies capable of differentiating cell populations within the blood sample were also included in some of the tubes. For example, anti-CD14 antibodies were included to specifically label monocytes, anti-CD3 antibodies or anti-CD19 antibodies were included to specifically label T or B-cells respectively, and/or anti-CD38/CD138 antibodies were included to specifically label plasma cells. The cells were incubated with the antibodies for 30 minutes at room temperature and then the cells were washed in 2 mL of cold Wash Buffer and centrifuged as described above. The supernatant was aspirated and the cell pellet was resuspended in 350 μL of Resuspension Buffer (PerFix-P® kit) and analyzed on a flow cytometer (GALLIOS™) using a protocol with defined population gates and series of dual parameter histograms. A CD45-KO vs. SS dual parameter histogram was collected and a gate around the leukocyte population based on the CD45+ fluorescence and SS characteristics was drawn to exclude debris (CD45 negative events). A minimum of 2,500 CD14+ events were collected. A stop count region was set from the CD14-PC7 vs. SS histogram gated on monocytes. Dual parameter histograms gated on the appropriate populations were created to measure the populations of interest. The collected flow cytometric data was analyzed using KALUZA™ software.
(§4) Phosphorylation of signaling pathways activated by TNF-α, including ERK, Akt, and the ribosomal S6 protein, was monitored together with the degradation of IκB in peripheral blood WBCs. Whole blood samples were treated, activated, and processed as described in Example 1 and the degradation of IκB in peripheral blood cells was monitored by flow cytometry as described in Example 1. The IκB degradation agonist used in this example was TNF-α. […]

[3] = test system: peripheral blood monocytes; assay: IκB degradation agonists in whole blood: IκB degradation and signaling pathway activation in monocytes; conditions: for Pathways Activated: Target Cell Population: Monocytes
Method: as §1, §2, §3, §4

[4] = pathway: P-ERK/MAP kinase (Ras > Raf)
[5] = pathway: Tpl-2 > ERK/MAP kinase

| Molecule | Pathways Activated (granulocytes) | Akt activation in lymphocytes [2] | ERK activation in lymphocytes [2] | degradation of IκB in lymphocytes [2] | ERK activation in monocytes ([3]; agonist alone) | degradation of IκB in monocytes ([3]; agonist alone) | Pathways Activated ([2]; pathway: PI3 kinase > Akt) | S6 activation in lymphocytes [2] | Pathways Activated ([3]; pathway: IκB > NFκB) | Pathways Activated [3, 5] | Akt activation in monocytes ([3]; agonist alone) | other results |
| --- | --- | --- | --- | --- | --- | --- | --- | --- | --- | --- | --- | --- |
| N#CC(=C(/N)Sc1ccccc1N)/C(C#N)=C(\N)Sc1ccccc1N [U0126] | – | – | – | – | – | – | – | – | – | – | – | ERK activation [1]: inhibited |
| CCCCCCCCCCCCCC(=O)O[C@@H]1[C@@H](C)[C@@]2(O)[C@@H](C=C(CO)C[C@]3(O)C(=O)C(C)=C[C@@H]23)[C@@H]2C(C)(C)[C@]12OC(C)=O [PMA] | P-ERK/MAP kinase | not activated | activation of ERK | stimulated the degradation of IκB | activation of ERK | no degradation of IκB | – | – | – | – | – | Pathways Activated ([2]; pathway: IκB > NFκB (PKC?)): IκB > NFκB (PKC?); Pathways Activated [2, 4]: P-ERK/MAP kinase (Ras > Raf); Pathways Activated ([2]; pathway: P-S6 (P-ERK)): P-S6 (P-ERK); lymphocytes with both degradation of IκB and activation of ERK ([2]; over the 15 min time course): approximately 50%; Pathways Activated ([3]; pathway: (IκB is not degraded)): (IκB is not degraded); Pathways Activated [3, 4]: P-ERK/MAP kinase (Ras > Raf) |
| TNFα | P-p38 MAP kinase | Neither Akt nor S6 was activated | no apparent response | induced degradation of IκB | activated | induced degradation of IκB | PI3 kinase > Akt | Neither Akt nor S6 was activated | IκB > NFκB | Tpl-2 > ERK/MAP kinase | Neither Akt nor S6 was activated | Pathways Activated ([2]; pathway: ERK/MAP kinase (Tpl-2)): ERK/MAP kinase (Tpl-2); Pathways Activated ([2]; pathway: IκB > NFκB): IκB > NFκB; time of peak loss of IκB after stimulation ([2]; lymphocytes): 15 min; Pathways Activated ([3]; pathway: PI3 kinase > Akt): PI3 kinase > Akt; S6 activation in monocytes ([3]; agonist alone): Neither Akt nor S6 was activated; time of peak loss of IκB after stimulation ([3]; monocytes): 10 min |
| B1 | – | not activated | Neither ERK nor S6 were activated | – | low level of ERK activation | – | PI3 kinase > Akt | Neither ERK nor S6 were activated | IκB > NFκB | Tpl-2 > ERK/MAP kinase | not activated | Pathways Activated ([2]; pathway: IκB > NFκB (Tpl-2)): IκB > NFκB (Tpl-2); Pathways Activated [2, 5]: Tpl-2 > ERK/MAP kinase; decrease of the level of IκB ([2]; lymphocytes, between 40 and 45 minutes post treatment): approximately 40%; Pathways Activated ([3]; pathway: P38 MAP kinase): P38 MAP kinase; decrease of the level of IκB ([3]; monocytes, between 6 and 15 minutes post treatment): approximately 60% |
